According to ChEMBL document CHEMBL1932988, “Synthesis, antimicrobial, anticancer evaluation and QSAR studies of 6-methyl-4-[1-(2-substituted-phenylamino-acetyl)-1H-indol-3-yl]-2-oxo/thioxo-1,2,3,4-tetrahydropyrimidine-5-carboxylic acid ethyl esters” (Eur J Med Chem, 2012):
≈ marks a conversion by molar mass, not a printed value.

How the values were obtained:
[1] = tested on: Aspergillus niger; assay: Antifungal activity against Aspergillus niger MTCC 8189 after 7 days by tube dilution method; format: functional
[2] = tested on: Escherichia coli; assay: Antibacterial activity against Escherichia coli MTCC 1652 after 24 hrs by tube dilution method; format: functional
[3] = tested on: Bacillus subtilis; assay: Ratio of MIC to MBC for Bacillus subtilis MTCC 2063; format: functional
[4] = tested on: Bacillus subtilis; assay: Antibacterial activity against Bacillus subtilis MTCC 2063 after 24 hrs by tube dilution method; format: functional
[5] = tested on: HCT-116; assay: cells; settings: Homo sapiens, HCT-116, 72 h
[6] = tested on: Aspergillus niger; assay: Ratio of MIC to MFC for Aspergillus niger MTCC 8189; format: functional
[7] = tested on: Staphylococcus aureus; assay: Antibacterial activity against Staphylococcus aureus MTCC 2901 after 24 hrs followed by subculturing; format: functional
[8] = tested on: Candida albicans; assay: Antifungal activity against Candida albicans MTCC 227 after 48 hrs by tube dilution method hrs followed by subculturing; format: functional
[9] = tested on: Bacillus subtilis; assay: Antibacterial activity against Bacillus subtilis MTCC 2063 after 24 hrs by tube dilution method hrs followed by subculturing; format: functional
[10] = tested on: Escherichia coli; assay: Ratio of MIC to MBC for Escherichia coli MTCC 1652; format: functional
[11] = tested on: MCF7; assay: cells; settings: Homo sapiens, MCF7, 72 h
Description: Cytotoxicity against human MCF7 cells after 72 hrs by MTT assay

[12] = tested on: Escherichia coli; assay: Antibacterial activity against Escherichia coli MTCC 1652 after 24 hrs by tube dilution method hrs followed by subculturing; format: functional
[13] = tested on: Staphylococcus aureus; assay: Ratio of MIC to MBC for Staphylococcus aureus MTCC 2901; format: functional
[14] = tested on: Aspergillus niger; assay: Antifungal activity against Aspergillus niger MTCC 8189 after 7 days by tube dilution method hrs followed by subculturing; format: functional
[15] = tested on: Candida albicans; assay: Antifungal activity against Candida albicans MTCC 227 after 48 hrs by tube dilution method; format: functional
[16] = Partition coefficient, log P of the compound; format: physicochemical; settings: octanol/water
[17] = tested on: Staphylococcus aureus; assay: Antibacterial activity against Staphylococcus aureus MTCC 2901 after 24 hrs by tube dilution method; format: functional
[18] = tested on: Candida albicans; assay: Ratio of MIC to MFC for Candida albicans MTCC 227; format: functional

| Structure (SMILES) | -logMIC [1] | -logMIC [2] | Ratio [3] | -logMIC [4] | IC50 [5] | Ratio [6] | MBC [7] | MFC [8] | MBC [9] | Ratio [10] | IC50 [11] | MBC [12] | Ratio [13] | MFC [14] | -logMIC [15] | logP [16] | -logMIC [17] | Ratio [18] |
| --- | --- | --- | --- | --- | --- | --- | --- | --- | --- | --- | --- | --- | --- | --- | --- | --- | --- | --- |
| CCOC(=O)C1=C(C)NC(=S)NC1c1cn(C(=O)CNc2ccccc2)c2ccccc12 (stereo not drawn) | 1.55 | 1.55 | 3 | 1.25 | 450 µg/mL (≈ 1000 µM) | 3 | >0.11 uM/ml | >0.11 uM/ml | >0.11 uM/ml | 3 | 52 µg/mL (≈ 116 µM) | >0.11 uM/ml | 3 | >0.11 uM/ml | 1.55 | 2.92 | 1.55 | 3 |
| CCOC(=O)C1=C(C)NC(=S)NC1c1cn(C(=O)CNc2ccccc2Cl)c2ccccc12 (stereo not drawn) | 1.59 | 1.59 | 3 | 1.29 |  | 3 | >0.1 uM/ml | >0.1 uM/ml | >0.1 uM/ml | 3 |  | >0.1 uM/ml | 3 | >0.1 uM/ml | 1.59 | 3.44 | 1.29 | 3 |
| CCOC(=O)C1=C(C)NC(=S)NC1c1cn(C(=O)CNc2ccc([N+](=O)[O-])c(Cl)c2)c2ccccc12 (stereo not drawn) | 1.63 | 1.63 | 3 | 1.32 | 29 µg/mL (≈ 54.9 µM) | 3 | >0.09 uM/ml | >0.09 uM/ml | >0.09 uM/ml | 3 | 50 µg/mL (≈ 94.7 µM) | >0.09 uM/ml | 3 | >0.09 uM/ml | 1.63 | 3.4 | 1.63 | 3 |
| CCOC(=O)C1=C(C)NC(=O)NC1c1cn(C(=O)CNc2ccc([N+](=O)[O-])cc2Cl)c2ccccc12 (stereo not drawn) | 1.61 | 1.61 | 3 | 1.61 | 5 µg/mL (≈ 9.77 µM) | 3 | >0.1 uM/ml | >0.1 uM/ml | >0.1 uM/ml | 3 | 50 µg/mL (≈ 97.7 µM) | >0.1 uM/ml | 3 | >0.1 uM/ml | 1.61 | 1.99 | 1.61 | 3 |
| CCOC(=O)C1=C(C)NC(=O)NC1c1cn(C(=O)CNc2cccc([N+](=O)[O-])c2)c2ccccc12 (stereo not drawn) | 1.58 | 1.88 | 3 | 1.58 |  | 3 | 0.1 uM/ml | >0.1 uM/ml | >0.1 uM/ml | 3 |  | 0.1 uM/ml | 3 | >0.1 uM/ml | 1.58 | 1.48 | 1.88 | 3 |
| CCOC(=O)C1=C(C)NC(=O)NC1c1cn(C(=O)CNc2ccc([N+](=O)[O-])cc2)c2ccccc12 (stereo not drawn) | 1.58 | 1.88 | 3 | 1.58 |  | 3 | 0.1 uM/ml | >0.1 uM/ml | >0.1 uM/ml | 3 | > 1000 µg/mL | 0.1 uM/ml | 3 | >0.1 uM/ml | 1.58 | 1.48 | 1.88 | 3 |
| CCOC(=O)C1=C(C)NC(=S)NC1c1cn(C(=O)CNc2ccc(Cl)cc2)c2ccccc12 (stereo not drawn) | 1.59 | 2.19 | 3 | 1.59 |  | 3 | >0.1 uM/ml | >0.1 uM/ml | >0.1 uM/ml | 3 | 80 µg/mL (≈ 166 µM) | 0.05 uM/ml | 3 | >0.1 uM/ml | 1.59 | 3.44 | 1.59 | 3 |
| CCOC(=O)C1=C(C)NC(=O)NC1c1cn(C(=O)CNc2ccc(Cl)cc2)c2ccccc12 (stereo not drawn) | 1.57 | 1.27 | 3 | 1.27 |  | 3 | >0.11 uM/ml | >0.11 uM/ml | >0.11 uM/ml | 3 | 200 µg/mL (≈ 428 µM) | >0.11 uM/ml | 3 | >0.11 uM/ml | 1.57 | 2.04 | 1.57 | 3 |
| CCOC(=O)C1=C(C)NC(=S)NC1c1cn(C(=O)CNc2ccc([N+](=O)[O-])cc2)c2ccccc12 (stereo not drawn) | 1.6 | 2.5 | 3 | 1.6 |  | 3 | >0.1 uM/ml | 0.1 uM/ml | >0.1 uM/ml | 3 | > 1000 µg/mL | 0.03 uM/ml | 3 | >0.1 uM/ml | 1.9 | 2.88 | 1.6 | 3 |
| CCOC(=O)C1=C(C)NC(=S)NC1c1cn(C(=O)CNc2ccccc2N)c2ccccc12 (stereo not drawn) | 1.57 | 2.17 | 3 | 1.57 |  | 3 | 0.11 uM/ml | >0.11 uM/ml | >0.11 uM/ml | 3 | 100 µg/mL (≈ 216 µM) | 0.05 uM/ml | 3 | 0.11 uM/ml | 1.57 | 2.14 | 1.87 | 3 |
| OC(Cn1cncn1)(Cn1cncn1)c1ccc(F)cc1F [FLUCONAZOLE] | 2.64 |  |  |  |  |  |  | 0.04 uM/ml |  |  |  |  |  | 0.04 uM/ml | 2.64 |  |  |  |
| O=c1[nH]cc(F)c(=O)[nH]1 [FLUOROURACIL] |  |  |  |  | 6 µg/mL (≈ 46.1 µM) |  |  |  |  |  | 0.67 µg/mL (≈ 5.15 µM) |  |  |  |  |  |  |  |
| CCn1cc(C(=O)O)c(=O)c2cc(F)c(N3CCNCC3)cc21 [NORFLOXACIN] |  | 2.61 |  | 2.61 |  |  | 0.019 uM/ml |  | 0.019 uM/ml |  |  | 0.019 uM/ml |  |  |  |  | 2.61 |  |
